Test results from patent US8426408B2, “Pyrimidine inhibitors of kinases” (AbbVie Inc., priority 2009, dated 2013).

How the values were obtained:
[1] = target: T1, Aurora B (Homo sapiens, UniProt Q96GD4); assay: Aurora B enzyme inhibition (time-resolved fluorescence, histone H3 peptide); format: biochemical; conditions: 1 mM ATP
T1 construct: Active Aurora B enzyme (recombinant residues 1-344)
Outline: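 IC50s came from an exponential fit of inhibition against inhibitor concentration, with phosphorylation read as the 665/615 nm time-resolved fluorescence ratio after EDTA stop using Eu-anti-phospho-H3 and SA-APC. The 1 h reaction used Aurora B 1-344 plus GST-INCENP, biotin-histone H3 1-21 peptide and 1 mM ATP in pH 7.4 HEPES buffer.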

[2] = target: T2, Aurora A (Homo sapiens, UniProt O14965); assay: Aurora A enzyme inhibition (time-resolved fluorescence, STK substrate-2); format: biochemical; conditions: 1 mM ATP
T2 sequence (O14965 1-403): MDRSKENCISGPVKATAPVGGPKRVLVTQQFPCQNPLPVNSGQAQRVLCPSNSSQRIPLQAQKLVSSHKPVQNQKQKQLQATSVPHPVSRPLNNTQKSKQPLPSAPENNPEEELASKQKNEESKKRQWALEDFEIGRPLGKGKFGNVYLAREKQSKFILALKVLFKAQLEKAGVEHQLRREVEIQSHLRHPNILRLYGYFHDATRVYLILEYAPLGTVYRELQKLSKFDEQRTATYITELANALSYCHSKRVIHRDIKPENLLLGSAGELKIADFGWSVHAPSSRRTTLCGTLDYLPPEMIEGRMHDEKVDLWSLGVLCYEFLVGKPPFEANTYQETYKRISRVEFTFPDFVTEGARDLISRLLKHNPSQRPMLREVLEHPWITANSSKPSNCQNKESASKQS
Outline: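 Phosphorylation of biotinylated STK substrate-2 at 1 mM ATP, 1 h, Hepes buffer pH 7.4 (MgCl2, sodium orthovanadate, Triton X-100). After EDTA quench, 665/615 nm time-resolved fluorescence ratio read via europium anti-phospho antibody and SA-XL665; IC50 from exponential fit versus inhibitor concentration.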

[3] = system: NCI-H1299 cells; assay: Induction of polyploidy in H1299; format: cell-based, Human; conditions: NCI-H1299, 48 hours
Protocol: To determine the induction of polyploidy in H1299 cells, NCI-H1299 were seeded (4K/well) into 96-well culture plates (tissue culture grade, black, flat-clear bottom) and incubated overnight to produce cell-to-plate adherence. Inhibitors at varying concentrations were added into duplicate wells containing cells and culture media (RPMI 1640, 10% fetal calf serum) and incubated at 37 C for 48 hours. The plates were then washed with PBS and the adherent cells fixed by incubating with 3% formalin for 1 hour. After washing four times with PBS, the cells were then stained with Hoechst and subjected to fluorescent (360 i/460e) microscopic high content analysis to determine the effect of inhibitors on nuclear size. Polyploid cells (≧4N) were defined as those having nuclear area>750μ^2. Potency was expressed as the concentration of inhibitor necessary to induce polyploidy in 15% of cells (EC15) and was calculated from least squares analysis of the log dose-response.

[4] = target: KDR (Homo sapiens, UniProt P35968); assay: KDR HTRF in vitro kinase assay; format: biochemical; set-up: purified enzyme (His6-KDR 789-1354, MW 63 kD); His6 (N); conditions: 1 mM ATP; read-out: KDR enzyme inhibition data (Ki)
Outline: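 His6-KDR 789-1354 (7 ng/well) with 0.5 μM biotinylated peptide substrate and 1 mM ATP in HEPES pH 7.1, MgCl2/MnCl2, 60 min at room temperature. EDTA-quenched, detected by streptavidin-XL-665 plus Eu-kryptate anti-phosphotyrosine HTRF after 3 h; IC50 from 620/665 nm ratio.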

T1 sequence (Q96GD4 whole entry, the tested form may be a part): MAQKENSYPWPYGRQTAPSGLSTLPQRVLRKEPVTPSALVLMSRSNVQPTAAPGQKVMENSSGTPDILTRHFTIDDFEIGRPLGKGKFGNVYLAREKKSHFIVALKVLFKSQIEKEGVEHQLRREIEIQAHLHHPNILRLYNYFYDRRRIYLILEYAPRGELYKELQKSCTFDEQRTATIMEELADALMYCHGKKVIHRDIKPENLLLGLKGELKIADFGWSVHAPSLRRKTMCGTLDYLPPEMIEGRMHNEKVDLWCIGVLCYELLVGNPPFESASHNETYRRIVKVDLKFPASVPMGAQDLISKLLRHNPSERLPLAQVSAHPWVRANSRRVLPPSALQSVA
T1 sequence (Q9NQS7 826-918 partner limits assumed): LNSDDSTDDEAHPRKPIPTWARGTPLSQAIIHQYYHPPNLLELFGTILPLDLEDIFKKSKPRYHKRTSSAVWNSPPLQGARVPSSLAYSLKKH
KDR, sequence (P35968 789-1354): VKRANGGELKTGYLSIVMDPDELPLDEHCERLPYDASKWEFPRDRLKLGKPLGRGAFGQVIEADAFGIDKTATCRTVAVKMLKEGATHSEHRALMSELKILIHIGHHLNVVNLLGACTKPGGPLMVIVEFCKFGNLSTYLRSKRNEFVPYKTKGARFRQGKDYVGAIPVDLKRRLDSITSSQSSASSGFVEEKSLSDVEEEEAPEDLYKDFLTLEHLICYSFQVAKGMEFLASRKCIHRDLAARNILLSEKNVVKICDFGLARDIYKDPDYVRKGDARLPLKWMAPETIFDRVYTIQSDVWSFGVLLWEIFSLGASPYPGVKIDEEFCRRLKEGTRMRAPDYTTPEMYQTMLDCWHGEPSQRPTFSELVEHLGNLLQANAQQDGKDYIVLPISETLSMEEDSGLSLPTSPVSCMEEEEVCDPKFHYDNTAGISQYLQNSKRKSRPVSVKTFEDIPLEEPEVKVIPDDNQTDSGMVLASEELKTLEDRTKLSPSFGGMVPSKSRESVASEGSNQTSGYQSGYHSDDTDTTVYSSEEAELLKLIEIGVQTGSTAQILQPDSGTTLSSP

SMILES | Ki [1] | Ki [2] | EC15 (concentration of inhibitor necessary to induce polyploidy in 15% of cells) [3] | Ki [4]
NC(=O)[C@@H]1[C@H](Nc2nc(Nc3cnn(CCO)c3)ncc2F)[C@H]2C=C[C@@H]1C2.NC(=O)[C@H]1[C@@H](Nc2nc(Nc3cnn(CCO)c3)ncc2F)[C@@H]2C=C[C@H]1C2 (mixture of isomers) [Example 11, (1S,2S,3R,4R)-3-[(5-fluoro-2-{[1-(2-hydroxyethyl)-1H-pyrazol-4-yl]amino}pyrimidin-4-yl)amino]bicyclo[2.2.1]hept-5-ene-2-carboxamide and (1R,2R,3S,4S)-3-[(5-fluoro-2-{[1-(2-hydroxyethyl)-1H-pyrazol-4-yl]amino}pyrimidin-4-yl)amino]bicyclo[2.2.1]hept-5-ene-2-carboxamide] | < 100 nM | < 100 nM | A (“A” represents an EC15 of less than 0.1 μM) | 100 to 1000 nM
NC(=O)[C@@H]1[C@H](Nc2nc(Nc3cn[nH]c3)ncc2F)[C@H]2C=C[C@@H]1C2.NC(=O)[C@H]1[C@@H](Nc2nc(Nc3cn[nH]c3)ncc2F)[C@@H]2C=C[C@H]1C2 (mixture of isomers) [Example 5, (1S,2S,3R,4R)-3-{[5-fluoro-2-(1H-pyrazol-4-ylamino)pyrimidin-4-yl]amino}bicyclo[2.2.1]hept-5-ene-2-carboxamide and (1R,2R,3S,4S)-3-{[5-fluoro-2-(1H-pyrazol-4-ylamino)pyrimidin-4-yl]amino}bicyclo[2.2.1]hept-5-ene-2-carboxamide] | < 100 nM | 100 to 1000 nM | B (“B” represents an EC15 of between 0.1 μM and 1 μM) | 100 to 1000 nM
Cn1cc(Nc2ncc(C(F)(F)F)c(N[C@@H]3CCC[C@@H]3C(N)=O)n2)cn1.Cn1cc(Nc2ncc(C(F)(F)F)c(N[C@H]3CCC[C@H]3C(N)=O)n2)cn1 (mixture of isomers) [Example 25, (1S,2R)-2-{[2-[(1-methyl-1H-pyrazol-4-yl)amino]-5-(trifluoromethyl)pyrimidin-4-yl]amino}cyclopentanecarboxamide and (1R,2S)-2-{[2-[(1-methyl-1H-pyrazol-4-yl)amino]-5-(trifluoromethyl)pyrimidin-4-yl]amino}cyclopentanecarboxamide] | < 100 nM | 100 to 1000 nM | A (“A” represents an EC15 of less than 0.1 μM) | 100 to 1000 nM
Cn1cc(Nc2ncc(C(F)(F)F)c(N[C@@H]3CC=CC[C@@H]3C(N)=O)n2)cn1.Cn1cc(Nc2ncc(C(F)(F)F)c(N[C@H]3CC=CC[C@H]3C(N)=O)n2)cn1 (mixture of isomers) [Example 26, (1S,6R)-6-{[2-[(1-methyl-1H-pyrazol-4-yl)amino]-5-(trifluoromethyl)pyrimidin-4-yl]amino}cyclohex-3-ene-1-carboxamide and (1R,6S)-6-{[2-[(1-methyl-1H-pyrazol-4-yl)amino]-5-(trifluoromethyl)pyrimidin-4-yl]amino}cyclohex-3-ene-1-carboxamide] | < 100 nM | 1000 to 5000 nM | A (“A” represents an EC15 of less than 0.1 μM) | 1000 to 5000 nM
CNC(=O)[C@@H]1[C@H](Nc2nc(Nc3cnn(C)c3)ncc2F)[C@H]2C=C[C@@H]1C2.CNC(=O)[C@H]1[C@@H](Nc2nc(Nc3cnn(C)c3)ncc2F)[C@@H]2C=C[C@H]1C2 (mixture of isomers) [Example 9, (1S,2S,3R,4R)-3-({5-fluoro-2-[(1-methyl-1H-pyrazol-4-yl)amino]pyrimidin-4-yl}amino)-N-methylbicyclo[2.2.1]hept-5-ene-2-carboxamide and (1R,2R,3S,4S)-3-({5-fluoro-2-[(1-methyl-1H-pyrazol-4-yl)amino]pyrimidin-4-yl}amino)-N-methylbicyclo[2.2.1]hept-5-ene-2-carboxamide] | < 100 nM | 100 to 1000 nM | A (“A” represents an EC15 of less than 0.1 μM) | > 5000 nM
Cc1cnc(Nc2cnn(CCO)c2)nc1N[C@@H]1[C@H](C(N)=O)[C@H]2C=C[C@@H]1C2.Cc1cnc(Nc2cnn(CCO)c2)nc1N[C@H]1[C@@H](C(N)=O)[C@@H]2C=C[C@H]1C2 (mixture of isomers) [Example 18, (1S,2S,3R,4R)-3-[(2-{[1-(2-hydroxyethyl)-1H-pyrazol-4-yl]amino}-5-methylpyrimidin-4-yl)amino]bicyclo[2.2.1]hept-5-ene-2-carboxamide and (1R,2R,3S,4S)-3-[(2-{[1-(2-hydroxyethyl)-1H-pyrazol-4-yl]amino}-5-methylpyrimidin-4-yl)amino]bicyclo[2.2.1]hept-5-ene-2-carboxamide] | 100 to 1000 nM | 100 to 1000 nM | A (“A” represents an EC15 of less than 0.1 μM) | 100 to 1000 nM
